# Patent publication US11103528B1, “Slow release calcium composition” (Government of the United States, as represented by the …, priority 2019, dated 2021)
# Test system: retinal pigmented epithelium (RPE) wild-type (WT) cells
# Assay: Effect of calcium and red-light irradiation on NO levels (DAF-FM DA integrated fluorescence)
# Assay type: cell-based
# Experimental: In this experiment, the influence of Ca^2+ on nitric oxide (NO) levels was determined by measuring the integrated fluorescence of the reaction product of NO with diaminofluorescein-FM diacetate (DAF-FM DA, C25H18F2N2O7).
# Procedurally, the experiment was carried out using a 96 well plate, with either ionic calcium (Ca^2+) or encapsulated calcium (CaCD) added to each of the wells. The concentration of calcium in the wells as CaCl2 was 1.67 mM, and the concentration as CaCD was 2.79 mM stock (or 5 μM final concentration), in a total volume of 300 μL in each well. The number of RPE-WT cells was approximately 175,000 per well. Two reference samples for CaCl2 and CaCD were used to compare relative changes upon exposure to red-light in the presence of Ca^2+. The RPE cells were incubated with DAF-FM DA for 30 minutes at 37 degrees C. and the fluorescence was immediately measured (as time-point 0 minutes) to obtain a ‘background’ baseline.
structure (smiles),measurement,setting,value
"[Ca+2].[Cl-].[Cl-] [Ca, CaCl2]","Intensity (integrated fluorescence of DAF-FM DA, NO level)","WT in PBS + Ca (no red light), Time 9.09 (minutes)",85.40
same,"Intensity (integrated fluorescence of DAF-FM DA, NO level)","WT in PBS + Ca (no red light), Time 28.63 (minutes)",92.76
same,"Intensity (integrated fluorescence of DAF-FM DA, NO level)","WT in PBS + Ca (no red light), Time 75.14 (minutes)",100.20
same,"Intensity (integrated fluorescence of DAF-FM DA, NO level)","WT in PBS + Ca (no red light), Time 307.24 (minutes)",191.01
same,"Intensity (integrated fluorescence of DAF-FM DA, NO level)","WT in PBS + Ca (no red light), Time 319.44 (minutes)",198.35
same,"Intensity (integrated fluorescence of DAF-FM DA, NO level)","WT in PBS + Ca (no red light), Time 431.58 (minutes)",271.80
same,"Intensity (integrated fluorescence of DAF-FM DA, NO level)","WT in PBS + Ca (no red light), Time 460.95 (minutes)",276.75
same,"Intensity (integrated fluorescence of DAF-FM DA, NO level)","WT in PBS + Ca (no red light), Time 770.49 (minutes)",489.70
same,"Intensity (integrated fluorescence of DAF-FM DA, NO level)","WT in PBS + Ca (no red light), Time 799.74 (minutes)",509.28
same,"Intensity (integrated fluorescence of DAF-FM DA, NO level)","WT in PBS + Ca + RL15, Time 9.09 (minutes)",85.40
same,"Intensity (integrated fluorescence of DAF-FM DA, NO level)","WT in PBS + Ca + RL15, Time 28.61 (minutes)",95.20
same,"Intensity (integrated fluorescence of DAF-FM DA, NO level)","WT in PBS + Ca + RL15, Time 70.2 (minutes)",105.06
same,"Intensity (integrated fluorescence of DAF-FM DA, NO level)","WT in PBS + Ca + RL15, Time 307.22 (minutes)",193.44
same,"Intensity (integrated fluorescence of DAF-FM DA, NO level)","WT in PBS + Ca + RL15, Time 316.95 (minutes)",203.22
same,"Intensity (integrated fluorescence of DAF-FM DA, NO level)","WT in PBS + Ca + RL15, Time 428.93 (minutes)",296.18
same,"Intensity (integrated fluorescence of DAF-FM DA, NO level)","WT in PBS + Ca + RL15, Time 460.74 (minutes)",303.57
same,"Intensity (integrated fluorescence of DAF-FM DA, NO level)","WT in PBS + Ca + RL15, Time 765.45 (minutes)",506.76
same,"Intensity (integrated fluorescence of DAF-FM DA, NO level)","WT in PBS + Ca + RL15, Time 799.54 (minutes)",533.67
same,"Intensity (integrated fluorescence of DAF-FM DA, NO level)","WT in PBS + Ca + RL30, Time 11.6 (minutes)",68.33
same,"Intensity (integrated fluorescence of DAF-FM DA, NO level)","WT in PBS + Ca + RL30, Time 33.6 (minutes)",75.70
same,"Intensity (integrated fluorescence of DAF-FM DA, NO level)","WT in PBS + Ca + RL30, Time 72.9 (minutes)",73.36
same,"Intensity (integrated fluorescence of DAF-FM DA, NO level)","WT in PBS + Ca + RL30, Time 308 (minutes)",83.69
same,"Intensity (integrated fluorescence of DAF-FM DA, NO level)","WT in PBS + Ca + RL30, Time 320.3 (minutes)",86.16
same,"Intensity (integrated fluorescence of DAF-FM DA, NO level)","WT in PBS + Ca + RL30, Time 427 (minutes)",237.64
same,"Intensity (integrated fluorescence of DAF-FM DA, NO level)","WT in PBS + Ca + RL30, Time 466 (minutes)",240.17
same,"Intensity (integrated fluorescence of DAF-FM DA, NO level)","WT in PBS + Ca + RL30, Time 770.9 (minutes)",462.87
same,"Intensity (integrated fluorescence of DAF-FM DA, NO level)","WT in PBS + Ca + RL30, Time 799.9 (minutes)",494.65
same,"Intensity (integrated fluorescence of DAF-FM DA, NO level)","WT in PBS + Ca + RL60, Time 11.52 (minutes)",87.84
same,"Intensity (integrated fluorescence of DAF-FM DA, NO level)","WT in PBS + Ca + RL60, Time 33.54 (minutes)",92.78
same,"Intensity (integrated fluorescence of DAF-FM DA, NO level)","WT in PBS + Ca + RL60, Time 72.65 (minutes)",105.07
same,"Intensity (integrated fluorescence of DAF-FM DA, NO level)","WT in PBS + Ca + RL60, Time 307.26 (minutes)",188.57
same,"Intensity (integrated fluorescence of DAF-FM DA, NO level)","WT in PBS + Ca + RL60, Time 319.42 (minutes)",200.79
same,"Intensity (integrated fluorescence of DAF-FM DA, NO level)","WT in PBS + Ca + RL60, Time 429.53 (minutes)",223.01
same,"Intensity (integrated fluorescence of DAF-FM DA, NO level)","WT in PBS + Ca + RL60, Time 463.82 (minutes)",225.53
same,"Intensity (integrated fluorescence of DAF-FM DA, NO level)","WT in PBS + Ca + RL60, Time 768.4 (minutes)",445.79
same,"Intensity (integrated fluorescence of DAF-FM DA, NO level)","WT in PBS + Ca + RL60, Time 799.9 (minutes)",480.01
same,DAF-FM DA NO profile,"ionic calcium wells, over the entire 800 minutes",continued to increase
